Assay results as given in PMC11188489, “Pharmacokinetic assessment of tacrolimus in combination with deoxyschizandrin in rats” (Frontiers in Pharmacology, 2024).

Legend:
[1] = Pharmacokinetics of Tac in rats alone or co-administered with deoxyschizandrin or Wuzhi capsule (UHPLC-MS/MS of plasma); assay type: in vivo, SD rats; details: for AUMC0→t / AUC(0-inf) / AUC(0-t) / Cmax / MRT / Tmax / half-life: rat plasma; for AUC(0-inf) / AUC(0-t) / Cmax / MRT / Tmax / half-life: male, SD, rat, plasma
Method: The mobile phase A was acetonitrile, and mobile phase B was 0.1% formic acid in water, and the initial mobile phase of gradient elution program was consisted of 60% phase A and 40% phase B. The sample injection volume was set at 10 μL. Gradient elution program was supplied in Supplementary Table S1.
The mass spectrometry detection was achieved on an Agilent 6460A mass spectrometer with ESI source. […] The settings of the mass spectrometer source were as follows: capillary voltage 4,000 V, sheath gas flow 12 L/min, temperature 400°C, dry gas (nitrogen) flow 10 L/min and temperature 350°C, nebulizer pressure 45 psi. All analytes were detected in positive ionization mode. Collision gas (high purity liquid nitrogen) was set at 0.25 MPa. The structures of both two analytes and IS are display in Figure 1.
The pretreatment was performed for the plasma sample by one-step protein precipitation, Briefly, 100 μL sample was transferred into a 1.5 mL EP tube prior to adding with 300 μL methanol(containing 200 ng/mL IS). The mixture was vortex-mixed for 30 s before centrifugation at 17,400 g for 10 min at room temperature, and 100 μL of the supernatant was diluted with 100 μL of acetonitrile (v/v, 1:1) Then, a 10 μL aliquoted of diluted solution was injected into the UHPLC-MS/MS system for analysis.
The protocol of the animal study was approved by the Experimental Animal Ethics Committee of the Shanghai University of Traditional Chinese Medicine. Specific Pathogen Free (SPF) grade SD rats, male, 8 weeks old, 200–250 g, were obtained from the animal experiment center of Shanghai University of Traditional Chinese Medicine. After passing quarantine, the rats were adaptive fed for 2 days. Rats were fasted for 12–14 h, followed by the initiation of pharmacokinetic study of Tac and deoxyschizandrin. This animal study was carried out in accordance with the National Institutes of Health Guide for the Care and Use of Laboratory animals.
In this study, 42 rats were divided equally into seven groups of six rats each, numbered NG2201-NG2207. Among them, the NG2201 and NG2202 group was dosed with 150 mg/kg deoxyschizandrin alone to study the PK of deoxyschizandrin in rats after single and multiple doses; the NG2203 group was administrate dosed with 1.0 mg/kg of Tac; the NG2204-NG2206 groups were dosed with 75, 150, and 300 mg/kg of deoxyschizandrin plus 1.0 mg/kg Tac, respectively, and the NG2207 group was dosed with the Wuzhi capsule (approximately equal to 150 mg/kg of deoxyschizandrin) plus 1.0 mg/kg of Tac ([Teng et al., 2022]). The detailed dosing regimen is shown in Table 2, and all dose in this experiment were calculated according to clinical dose. Blood samples (approximately 300 μL for each) for PK analysis were collected into lithium–heparin tubes. The plasma sampling schedules are outlined below: Blood samples were drawn pre-dose, at 5, 10, 20 and 30 min, and at 1, 1.5, 2, 4, 8 and 24 h after drug administration. The blood samples were centrifuged at 5,000 g for 15 min at 4°C to collect plasma samples, which were placed −80 refrigerator.
The rat plasma collected from each group was pretreated according to the method in section 2.5, and exposure levels of Tac and deoxyschizandrin were determined using the above established UHPLC-MS/MS method and the PKs were calculated using DAS software using non-compartment model (version 2.0, China Pharmacological Society). The data were presented as mean ± SD.

[2] = Stability of the two analytes in rat plasma under different storage conditions; assay type: in vitro ADME; details: n=5
Method: To prepare the stock solution, approximately 2.00 mg of Tac, deoxyschizandrin and IS were accurately weighed and dissolved in methanol, respectively. The stock solutions of Tac and deoxyschizandrin with a final concentration of 1.00 mg/mL was obtained, and the IS stock solution was diluted to 100.00 ng/mL using methanol before use. The stock solutions were aliquoted and stored at −80°C. Combined working solutions were prepared by diluting the stock solution using 10% aqueous methanol at the following concentrations: 5.00, 10.00, 20.00, 50.00, 100.00, 200.00, 500.00, 1,000.00, and 2,000.00 ng/mL. Blank rat plasma was used to prepare the calibration standards. Quality-control (QC) samples of two analytes were prepared separately in the same manner at three concentrations, namely, 10 (low concentration), 100 (middle), 1,000 ng/mL (high), and all QC samples were stored at −80°C.
The methodology validation was completed according to FDA guidelines and Chinese Pharmacopoeia (2015 edition), and the linearity, inter- and intra-precision and accuracy, matrix effect and extraction recovery, stability and specificity of this method were validated according to previous study ([Lu et al., 2022]; [Wang et al., 2022]; [Shu et al., 2016]).

[3] = design: method as in Abushammala, 2021; details: ref Abushammala, 2021; cited from earlier work
[4] = 1 mg/kg, NG2203: 1.0 mg/kg of Tac alone
[5] = 1 mg/kg, NG2204: 1.0 mg/kg of Tac plus 75 mg/kg deoxyschizandrin
[6] = 1 mg/kg, NG2205: 1.0 mg/kg of Tac plus 150 mg/kg deoxyschizandrin
[7] = 1 mg/kg, NG2206: 1.0 mg/kg of Tac plus 300 mg/kg deoxyschizandrin
[8] = 1 mg/kg, NG2207: 1.0 mg/kg of Tac plus Wuzhi capsule (equivalent to 150 mg/kg deoxyschizandrin)
[9] = 1 mg/kg, Tac 1 mg/kg alone (NG2203)
[10] = 1.0 mg/kg of Tac plus Wuzhi capsule (equivalent to 150 mg/kg deoxyschizandrin)

## C=CC[C@@H]1/C=C(\C)C[C@H](C)C[C@H](OC)[C@H]2O[C@@](O)(C(=O)C(=O)N3CCCC[C@H]3C(=O)O[C@H](/C(C)=C/[C@@H]3CC[C@@H](O)[C@H](OC)C3)[C@H](C)[C@@H](O)CC1=O)[C@H](C)C[C@@H]2OC [Tac, Tacrolimus]
[1]; 75, 150, 300 mg/kg deoxyschizandrin plus 1 mg/kg Tac vs Tac alone, rats
  increase of C max of Tac after co-administered deoxyschizandrin: 3-4 fold
[1]; NG2203: 1.0 mg/kg of Tac alone
  AUMC0→t: 613.05 ± 182.15 ng. h2/mL
[1]; NG2204: 1.0 mg/kg of Tac plus 75 mg/kg deoxyschizandrin
  AUMC0→t: 2107.22 ± 701.25 ng. h2/mL
[1]; NG2205: 1.0 mg/kg of Tac plus 150 mg/kg deoxyschizandrin
  AUMC0→t: 1915.12 ± 621.91 ng. h2/mL
[1]; NG2206: 1.0 mg/kg of Tac plus 300 mg/kg deoxyschizandrin
  AUMC0→t: 3,315.05 ± 1,100.65 ng. h2/mL
[1]; NG2207: 1.0 mg/kg of Tac plus Wuzhi capsule (equivalent to 150 mg/kg deoxyschizandrin)
  AUMC0→t: 2395.69 ± 1,225.18 ng. h2/mL
[1]; Tac 1.0 mg/kg plus Wuzhi capsule vs plus 150 mg/kg deoxyschizandrin, rats
  mean C max lower with Wuzhi capsule compared with deoxyschizandrin: 11.23 ng/mL
[1]; [4]
  AUC(0-inf): 105 ± 31.3 ng·h/mL
  AUC(0-t): 95.1 ± 32.6 ng·h/mL
  Cmax: 14.3 ± 4.73 ng/mL
  MRT: 6.54 ± 0.55 h
  Tmax: 1.33 ± 0.52 h
  half-life: 7.3 ± 3.06 h
[1]; [5]
  AUC(0-inf): 351 ± 117 ng·h/mL
  AUC(0-t): 314 ± 99.4 ng·h/mL
  Cmax: 43.2 ± 13.7 ng/mL
  MRT: 6.69 ± 0.25 h
  Tmax: 1.17 ± 0.41 h
  half-life: 7.31 ± 1.04 h
[1]; [6]
  AUC(0-inf): 331 ± 98 ng·h/mL
  AUC(0-t): 315 ± 92.2 ng·h/mL
  Cmax: 54.5 ± 14.4 ng/mL
  MRT: 6.02 ± 0.53 h
  Tmax: 1.08 ± 0.49 h
  half-life: 5.04 ± 1.95 h
[1]; [7]
  AUC(0-inf): 534 ± 176 ng·h/mL
  AUC(0-t): 486 ± 149 ng·h/mL
  Cmax: 67.4 ± 18.6 ng/mL
  MRT: 6.76 ± 0.31 h
  Tmax: 0.75 ± 0.27 h
  half-life: 6.59 ± 1.62 h
[1]; [8]
  AUC(0-inf): 388 ± 217 ng·h/mL
  AUC(0-t): 340 ± 193 ng·h/mL
  Cmax: 43.2 ± 21.9 ng/mL
  MRT: 7.23 ± 1.04 h
  Tmax: 1.5 ± 0.55 h
  half-life: 8.27 ± 2.2 h
[1]; [9]
  AUC(0-inf): 105 ± 31.3 ng·h/mL
  AUC(0-t): 95.1 ± 32.6 ng·h/mL
[1]; 1 mg/kg, Tac alone (NG2203)
  AUC(0-t): 95.1 ± 32.6 ng·h/mL
[1]; [10]
  AUC(0-inf): 388 ± 217 ng·h/mL
  AUC(0-t): 340 ± 193 ng·h/mL
[1]; Tac after co-administration of deoxyschizandrin (NG2205)
  AUC(0-t): 315 ± 92.2 ng·h/mL
[1]; Tac co-administrated with deoxyschizandrin (NG2205)
  AUC(0-t): 315 ± 92.2 ng·h/mL
[2]; Nominal Conc. 10 ng/mL
  Auto-sampler stability (24h, 4℃) Mean ± SD: 10.23±0.51
  Bench-top stability (8h, RT) Mean ± SD: 10.39±0.41
  Frozen-thaw stability (3 times) Mean ± SD: 10.55±0.54
  Long-term stability (1 month, -80℃) Mean ± SD: 10.35±0.14
[2]; Nominal Conc. 100 ng/mL
  Auto-sampler stability (24h, 4℃) Mean ± SD: 103.90±2.74
  Bench-top stability (8h, RT) Mean ± SD: 102.33±1.53
  Frozen-thaw stability (3 times) Mean ± SD: 110.23±5.21
  Long-term stability (1 month, -80℃) Mean ± SD: 101.09±1.01
[2]; Nominal Conc. 1000 ng/mL
  Auto-sampler stability (24h, 4℃) Mean ± SD: 1010.05±13.85
  Bench-top stability (8h, RT) Mean ± SD: 1009.93±11.80
  Frozen-thaw stability (3 times) Mean ± SD: 1025.45±12.50
  Long-term stability (1 month, -80℃) Mean ± SD: 1008.72±11.30
[3]
  average bioavailability: 25%
